Reference: the supplement of paper PMC11208160

assay: recombinant UMI read abundance after kanamycin selection (control-corrected) (log10(CPM+1)); higher = more efficient recombination; extreme values may be limits of the assay; sequences stand for … in AGTGCAGAGAAAATCGGCCAGTTTTCTCTGCCTGCAGTCCGCATGCCGTGGGACCCCTTGGGTTCTAACCTGTTGCCTAGATTTATGCAGCGGACTGCCTTTCTCCCAAAGTGATAAACCGG…AGGTTGGTTTCACT; site = the 11-nt donor
How it was run: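 Sequencing read counts were converted to CPM, averaged over two replicates and scaled by control-derived factors. Results are given as log10(CPM+1). The reads covered the donor–target junction of recombinant UMIs from a pooled Escherichia coli screen of donor and donor-binding-loop pairs for the IS621 bridge recombinase.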
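Note: IS621 bridge recombinase in Escherichia coli cells against a fixed T5 target plasmid.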

Sequence	recombinant UMI read abundance (log10)
GCCAAGCCATGGACCGGTTTTCCCGGTAATCCGTATTTGTA (site GCCAGGCCTTA)	0.00969
GCCAAGCCATGGACCGGTTTTCCCGGTAATCCGTATTTGTA (site GCCATGCCTTA)	0.00407
GCCACGACATGGACCGGTTTTCCCGGTAATCCGTATTTGTA (site GCCACGACTTA)	2.11
GCCACGACATGGACCGGTTTTCCCGGTAATCCGTATTTGTA (site GCCACGCCTTA)	0.00858
GCCACGACATGGACCGGTTTTCCCGGTAATCCGTATTTGTA (site GCCACGGCTTA)	0.423
GCCACGACATGGACCGGTTTTCCCGGTAATCCGTATTTGTA (site GCCACGTCTTA)	0.283
GCCAGGACATGGACCGGTTTTCCCGGTAATCCGTATTTGTT (site GCCAGGACTAA)	1.71
GCCAGGCCATGGACCGGTTTTCCCGGTAATCCGTATTTGTA (site GCCAAGCCTTA)	0.198
GCCAGGCCATGGACCGGTTTTCCCGGTAATCCGTATTTGTA (site GCCACGCCTTA)	0.00645
GCCAGGCCATGGACCGGTTTTCCCGGTAATCCGTATTTGTA (site GCCAGGCCTTA)	0.112
GCCAGGCCATGGACCGGTTTTCCCGGTAATCCGTATTTGTA (site GCCATGCCTTA)	0.00384
GCCATATCATGGACCGGTTTTCCCGGTAATCCGTATTTGTC (site ACCATATCTGA)	1.74
GCCATATCATGGACCGGTTTTCCCGGTAATCCGTATTTGTC (site CCCATATCTGA)	0.61
GCCATATCATGGACCGGTTTTCCCGGTAATCCGTATTTGTC (site GCCATATCTGA)	1.87
GCCATATCATGGACCGGTTTTCCCGGTAATCCGTATTTGTC (site TCCATATCTGA)	1.87
GCCCACCCATGGACCGGTTTTCCCGGTAATCCGTATTTGAA (site GCCCACCCTTT)	0.362
GCCCCTACATGGACCGGTTTTCCCGGTAATCCGTATTTGCC (site GCCCCTACTGG)	2.33
GCCCGAACATGGACCGGTTTTCCCGGTAATCCGTATTTGTC (site GCCCGAACTGA)	1.98
GCCGACTCATGGACCGGTTTTCCCGGTAATCCGTATTTGCG (site GCCGACTCTCG)	2.35
GCCGAGCCATGGACCGGTTTTCCCGGTAATCCGTATTTGTA (site GCCGAGCCTTA)	0.381
GCCGCACCATGGACCGGTTTTCCCGGTAATCCGTATTTGGA (site GCCGCACCTTC)	0.0196
GCCGCGCCATGGACCGGTTTTCCCGGTAATCCGTATTTGGG (site GCCGCGCCTCC)	0.0148
GCCGTCCCATGGACCGGTTTTCCCGGTAATCCGTATTTGCA (site GCCGTCCCTTG)	0.345
GCCTACCCATGGACCGGTTTTCCCGGTAATCCGTATTTGAA (site GCCTACCCTTT)	0.0461
GCCTAGACATGGACCGGTTTTCCCGGTAATCCGTATTTGGG (site ACCTAGACTCC)	0.186

Sequence	recombinant UMI read abundance (log10)
GCCTAGACATGGACCGGTTTTCCCGGTAATCCGTATTTGGG (site CCCTAGACTCC)	0.0341
GCCTAGACATGGACCGGTTTTCCCGGTAATCCGTATTTGGG (site GCCTAGACTCC)	0.283
GCCTAGACATGGACCGGTTTTCCCGGTAATCCGTATTTGGG (site TCCTAGACTCC)	0.0888
GCCTAGCCATGGACCGGTTTTCCCGGTAATCCGTATTTGCC (site ACCTAGCCTGG)	0
GCCTAGCCATGGACCGGTTTTCCCGGTAATCCGTATTTGCC (site CCCTAGCCTGG)	0
GCCTAGCCATGGACCGGTTTTCCCGGTAATCCGTATTTGCC (site GCCTAGCCTGG)	0
GCCTAGCCATGGACCGGTTTTCCCGGTAATCCGTATTTGCC (site TCCTAGCCTGG)	0
GCCTCCCCATGGACCGGTTTTCCCGGTAATCCGTATTTGGA (site GCCTCCCCTTC)	0.0286
GCCTGGACATGGACCGGTTTTCCCGGTAATCCGTATTTGGC (site GCCTGGACTGC)	0.0803
GCCTTCACATGGACCGGTTTTCCCGGTAATCCGTATTTGTT (site GCCTTCACTAA)	0.931
GCCTTCTCATGGACCGGTTTTCCCGGTAATCCGTATTTGGG (site ACCTTCTCTCC)	0.00678
GCCTTCTCATGGACCGGTTTTCCCGGTAATCCGTATTTGGG (site CCCTTCTCTCC)	0.0122
GCCTTCTCATGGACCGGTTTTCCCGGTAATCCGTATTTGGG (site GCCTTCTCTCC)	0.00741
GCCTTCTCATGGACCGGTTTTCCCGGTAATCCGTATTTGGG (site TCCTTCTCTCC)	0.0193
GCGAAACCATGGACCGGTTTTCCCGGTAATCCGTATTTGGG (site GCGAAACCTCC)	0
GCGAAACCATGGACCGGTTTTCCCGGTAATCCGTATTTGGG (site GCGAACCCTCC)	0.0118
GCGAAACCATGGACCGGTTTTCCCGGTAATCCGTATTTGGG (site GCGAAGCCTCC)	0.0136
GCGAAACCATGGACCGGTTTTCCCGGTAATCCGTATTTGGG (site GCGAATCCTCC)	0
GCGAAACCATGGACCGGTTTTCCCGGTAATCCGTATTTGTG (site GCGAAACCTCA)	0
GCGAACCCATGGACCGGTTTTCCCGGTAATCCGTATTTGAA (site GCGAACCCTTT)	2.49
GCGAACGCATGGACCGGTTTTCCCGGTAATCCGTATTTGCT (site GCGAACGCTAG)	2.26
GCGAAGACATGGACCGGTTTTCCCGGTAATCCGTATTTGTT (site GCGAAGACTAA)	2.37
GCGAAGCCATGGACCGGTTTTCCCGGTAATCCGTATTTGAG (site GCGAAGCCTCA)	0.0311
GCGAAGCCATGGACCGGTTTTCCCGGTAATCCGTATTTGAG (site GCGAAGCCTCC)	0.0267
GCGAAGCCATGGACCGGTTTTCCCGGTAATCCGTATTTGAG (site GCGAAGCCTCG)	0

Sequence	recombinant UMI read abundance (log10)
GCGAAGCCATGGACCGGTTTTCCCGGTAATCCGTATTTGAG (site GCGAAGCCTCT)	0.00807
GCGAAGCCATGGACCGGTTTTCCCGGTAATCCGTATTTGGG (site ACGAAGCCTCC)	0.0189
GCGAAGCCATGGACCGGTTTTCCCGGTAATCCGTATTTGGG (site CCGAAGCCTCC)	0.0227
GCGAAGCCATGGACCGGTTTTCCCGGTAATCCGTATTTGGG (site GAGAAGCCTCC)	0.00349
GCGAAGCCATGGACCGGTTTTCCCGGTAATCCGTATTTGGG (site GCAAAGCCTCC)	0.00547
GCGAAGCCATGGACCGGTTTTCCCGGTAATCCGTATTTGGG (site GCCAAGCCTCC)	0
GCGAAGCCATGGACCGGTTTTCCCGGTAATCCGTATTTGGG (site GCGAAACCTCC)	0
GCGAAGCCATGGACCGGTTTTCCCGGTAATCCGTATTTGGG (site GCGAACCCTCC)	0
GCGAAGCCATGGACCGGTTTTCCCGGTAATCCGTATTTGGG (site GCGAAGACTCC)	0.0597
GCGAAGCCATGGACCGGTTTTCCCGGTAATCCGTATTTGGG (site GCGAAGCCTAC)	0
GCGAAGCCATGGACCGGTTTTCCCGGTAATCCGTATTTGGG (site GCGAAGCCTCA)	0.00806
GCGAAGCCATGGACCGGTTTTCCCGGTAATCCGTATTTGGG (site GCGAAGCCTCC)	0.00509
GCGAAGCCATGGACCGGTTTTCCCGGTAATCCGTATTTGGG (site GCGAAGCCTCG)	0
GCGAAGCCATGGACCGGTTTTCCCGGTAATCCGTATTTGGG (site GCGAAGCCTCT)	0.00749
GCGAAGCCATGGACCGGTTTTCCCGGTAATCCGTATTTGGG (site GCGAAGCCTGC)	0
GCGAAGCCATGGACCGGTTTTCCCGGTAATCCGTATTTGGG (site GCGAAGCCTTC)	0.0136
GCGAAGCCATGGACCGGTTTTCCCGGTAATCCGTATTTGGG (site GCGAAGGCTCC)	0
GCGAAGCCATGGACCGGTTTTCCCGGTAATCCGTATTTGGG (site GCGAAGTCTCC)	0.00693
GCGAAGCCATGGACCGGTTTTCCCGGTAATCCGTATTTGGG (site GCGAATCCTCC)	0.0162
GCGAAGCCATGGACCGGTTTTCCCGGTAATCCGTATTTGGG (site GCGACGCCTCC)	0.00657
GCGAAGCCATGGACCGGTTTTCCCGGTAATCCGTATTTGGG (site GCGAGGCCTCC)	0.0307
GCGAAGCCATGGACCGGTTTTCCCGGTAATCCGTATTTGGG (site GCGATGCCTCC)	0
GCGAAGCCATGGACCGGTTTTCCCGGTAATCCGTATTTGGG (site GCGCAGCCTCC)	0.011
GCGAAGCCATGGACCGGTTTTCCCGGTAATCCGTATTTGGG (site GCGGAGCCTCC)	0.0363
GCGAAGCCATGGACCGGTTTTCCCGGTAATCCGTATTTGGG (site GCGTAGCCTCC)	0.0104
